Data: CN101069680A, “2-羟基-4-甲基苯磺酸制剂的制备及其应用” (BEIJING HUARUI DINGXIN TECHNOLOGY Co Ltd, priority 2007, dated 2007)

How the values were obtained:
[1] = tested on: Enterococcus faecalis 755 (粪肠球菌755); experiment: In vitro antibacterial effect, tube method; design: key to antibacterial effect: -: 有明显抑菌作用; +: 没有抑菌作用; details: 1% solution mixed with MH broth with 5% defibrinated sheep blood
[2] = tested on: Candida albicans 2 (白色念珠菌2); experiment: In vitro antibacterial effect, tube method; design: key: -: 有明显抑菌作用; +: 没有抑菌作用; details: 1% solution mixed with MH broth with 5% glucose, 37°C, 24 h
[3] = tested on: Candida albicans 10 (白色念珠菌10); experiment: In vitro antibacterial effect, tube method; design: key: -: 有明显抑菌作用; +: 没有抑菌作用; details: 1% solution mixed with MH broth with 5% glucose, 37°C, 24 h
[4] = tested on: beta-hemolytic streptococcus 96 (乙型链球菌96); experiment: In vitro antibacterial effect, tube method; design: key to antibacterial effect: -: 有明显抑菌作用; +: 没有抑菌作用; details: 1% solution mixed with MH broth with 5% defibrinated sheep blood
[5] = tested on: Staphylococcus epidermidis 26069 (表葡菌26069); experiment: In vitro antibacterial effect, tube method; design: key to antibacterial effect: -: 有明显抑菌作用; +: 没有抑菌作用; details: 1% solution mixed with MH broth
[6] = tested on: cervical erosion model rats (宫颈糜烂模型大鼠); experiment: Therapeutic effect on cervical erosion model rats: body weight, vagina and cervix weight index, white blood cell count; assay type: in vivo, rat; details: intravaginal, 12 days, positive control 0.02 g/kg, Example 2 gel 0.1048 g/kg
[7] = tested on: Staphylococcus aureus 9776 (金葡菌9776); experiment: In vitro antibacterial effect, tube method; design: key to antibacterial effect: -: 有明显抑菌作用; +: 没有抑菌作用; details: 1% solution mixed with MH broth
Candida albicans (白色念珠菌) = experiment: In vitro antibacterial effect, tube method (summary for the selected strains); details: 1% solution mixed with MH broth
[8] = tested on: Escherichia coli 26 (大肠埃希氏菌26); experiment: In vitro antibacterial effect, tube method; design: key to antibacterial effect: -: 有明显抑菌作用; +: 没有抑菌作用; details: 1% solution mixed with MH broth
[9] = tested on: Candida albicans 12 (白色念珠菌12); experiment: In vitro antibacterial effect, tube method; design: key: -: 有明显抑菌作用; +: 没有抑菌作用; details: 1% solution mixed with MH broth with 5% glucose, 37°C, 24 h
egg white (蛋清) = experiment: Astringent / coagulating effect on protein (precipitation of egg white); design: key to protein precipitation: -: 未见白色沉淀; +: 隐约可见白色沉淀; +: 有少量白色沉淀; ++: 有较多白色沉淀; +++: 有大量白色沉淀; details: for protein precipitation: 0.2 ml added to 5 ml of 5% egg white
[10] = tested on: Candida albicans 6 (白色念珠菌6); experiment: In vitro antibacterial effect, tube method; design: key: -: 有明显抑菌作用; +: 没有抑菌作用; details: 1% solution mixed with MH broth with 5% glucose, 37°C, 24 h
[11] = tested on: cervical erosion model rats (宫颈糜烂模型大鼠); experiment: Therapeutic effect on cervical erosion model rats: degree of cervical inflammation / pathology; assay type: in vivo, rat; details: intravaginal, 12 days, positive control 0.02 g/kg, Example 2 gel 0.1048 g/kg
[12] = number of rats out of 8 per group

Cc1ccc(S(=O)(=O)O)c(O)c1 [2-羟基-4-甲基苯磺酸]
antibacterial effect (in words) [1]: 没有抑菌作用 | antibacterial effect ([1]; 37°C, 24 h): + | antibacterial effect [2]: - | antibacterial effect [3]: - | antibacterial effect (in words) [4]: 没有抑菌作用 | antibacterial effect ([4]; 37°C, 24 h): + | inhibitory effect (in words) [5]: 有明显的抑制作用 | antibacterial effect ([5]; 37°C, 24 h): - | body weight after test ([6]; 1 h after last dose, *P<0.05 vs model): 249.6 ± 26.7 g | total white blood cell count ([6]; blood, after last dose, *P<0.05, **p<0.01 vs model): 5.74±0.88 10^9g/L | vagina and cervix weight index ([6]; *P<0.05 vs model): 0.268±0.102 g/100g body weight | inhibitory effect (in words) [7]: 有明显的抑制作用 | antibacterial effect ([7]; 37°C, 24 h): - | inhibitory effect (in words) (Candida albicans (白色念珠菌)): 有明显的抑制作用 | inhibitory effect (in words) [8]: 有明显的抑制作用 | antibacterial effect ([8]; 37°C, 24 h): - | antibacterial effect [9]: - | threshold concentration for astringent coagulating effect on protein (egg white (蛋清); concentration of the added solution): 0.39% | astringent coagulating effect compared with tannic acid (egg white (蛋清); same concentration): 弱于同浓度的鞣酸 | protein precipitation (egg white (蛋清); test substance solution 0.098% (tube 10)): - | protein precipitation (egg white (蛋清); test substance solution 0.195% (tube 9)): - | protein precipitation (egg white (蛋清); test substance solution 0.78% (tube 7)): + | protein precipitation (egg white (蛋清); test substance solution 1.56% (tube 6)): + | protein precipitation (egg white (蛋清); test substance solution 3.125% (tube 5)): ++ | protein precipitation (egg white (蛋清); test substance solution 6.25% (tube 4)): +++ | protein precipitation (egg white (蛋清); test substance solution 12.5% (tube 3)): +++ | protein precipitation (egg white (蛋清); test substance solution 25% (tube 2)): +++ | protein precipitation (egg white (蛋清); test substance solution 50% (tube 1)): +++ | antibacterial effect [10]: - | Ridit test u value ([11]; inflammation grade vs model group, * = significant difference): 2.8146 | inflammation degree grade: mild [11, 12]: 2 | inflammation degree grade: moderate [11, 12]: 1 | inflammation degree grade: normal [11, 12]: 4 | inflammation degree grade: severe [11, 12]: 1
